Assay results from ChEMBL document CHEMBL1136630, “Cancer chemotherapy: a SN-38 (7-ethyl-10-hydroxycamptothecin) glucuronide prodrug for treatment by a PMT (Prodrug MonoTherapy) strategy” (Bioorg Med Chem Lett, 2003).

Columns and labels:
[1] = Half-life time was determined; format: ADME
HT-29 [2] = assay: In vitro inhibitory concentration required against HT-29 human colon cancer cells in the presence of beta-D-glucuronidase; format: functional, cell-based
HT-29 [3] = assay: In vitro inhibitory concentration required against HT-29 human colon cancer cells; format: functional, cell-based

SMILES | half-life [1] | IC50 (HT-29 [2]) | IC50 (HT-29 [3])
CCc1c2c(nc3ccc(OC(=O)N(C)c4cc([N+](=O)[O-])ccc4OC4CC(C(=O)O)C(O)C(O)C4O)cc13)C1CC3=C(COC(=O)[C@]3(O)CC)C(=O)N1C2 (some centres undefined) | 12.7 min | 26 nM | 1980 nM
CCc1c2c(nc3ccc(O)cc13)-c1cc3c(c(=O)n1C2)COC(=O)[C@]3(O)CC [7-ETHYL-10-HYDROXYCAMPTOTHECIN] |  |  | 27.3 nM
